Source: ChEMBL document CHEMBL1135289, “Anthranilate sulfonamide hydroxamate TACE inhibitors. Part 2: SAR of the acetylenic P1' group” (Bioorg Med Chem Lett, 2002)

How the values were obtained:
[1] = target: T1, Interstitial collagenase (Homo sapiens) (UniProt P03956); assay: Inhibition of Matrix metalloprotease-1 at 10 uM
T1 sequence (whole entry): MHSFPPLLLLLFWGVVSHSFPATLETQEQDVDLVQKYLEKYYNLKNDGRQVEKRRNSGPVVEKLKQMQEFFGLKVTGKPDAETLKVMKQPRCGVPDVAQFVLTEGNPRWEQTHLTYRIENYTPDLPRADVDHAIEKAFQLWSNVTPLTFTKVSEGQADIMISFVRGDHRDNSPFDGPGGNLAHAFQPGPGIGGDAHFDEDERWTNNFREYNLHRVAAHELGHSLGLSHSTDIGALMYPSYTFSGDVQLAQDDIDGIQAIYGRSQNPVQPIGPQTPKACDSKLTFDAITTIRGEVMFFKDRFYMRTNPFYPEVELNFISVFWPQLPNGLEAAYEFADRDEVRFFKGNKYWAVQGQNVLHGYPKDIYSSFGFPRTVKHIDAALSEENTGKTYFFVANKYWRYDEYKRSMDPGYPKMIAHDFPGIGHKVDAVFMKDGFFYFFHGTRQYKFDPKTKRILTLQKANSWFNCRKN

[2] = target: T2, Matrix metalloproteinase-9 (Homo sapiens, UniProt P14780); assay: Inhibition of Matrix metalloprotease-9 at 10 uM
T2 sequence (P14780 whole entry): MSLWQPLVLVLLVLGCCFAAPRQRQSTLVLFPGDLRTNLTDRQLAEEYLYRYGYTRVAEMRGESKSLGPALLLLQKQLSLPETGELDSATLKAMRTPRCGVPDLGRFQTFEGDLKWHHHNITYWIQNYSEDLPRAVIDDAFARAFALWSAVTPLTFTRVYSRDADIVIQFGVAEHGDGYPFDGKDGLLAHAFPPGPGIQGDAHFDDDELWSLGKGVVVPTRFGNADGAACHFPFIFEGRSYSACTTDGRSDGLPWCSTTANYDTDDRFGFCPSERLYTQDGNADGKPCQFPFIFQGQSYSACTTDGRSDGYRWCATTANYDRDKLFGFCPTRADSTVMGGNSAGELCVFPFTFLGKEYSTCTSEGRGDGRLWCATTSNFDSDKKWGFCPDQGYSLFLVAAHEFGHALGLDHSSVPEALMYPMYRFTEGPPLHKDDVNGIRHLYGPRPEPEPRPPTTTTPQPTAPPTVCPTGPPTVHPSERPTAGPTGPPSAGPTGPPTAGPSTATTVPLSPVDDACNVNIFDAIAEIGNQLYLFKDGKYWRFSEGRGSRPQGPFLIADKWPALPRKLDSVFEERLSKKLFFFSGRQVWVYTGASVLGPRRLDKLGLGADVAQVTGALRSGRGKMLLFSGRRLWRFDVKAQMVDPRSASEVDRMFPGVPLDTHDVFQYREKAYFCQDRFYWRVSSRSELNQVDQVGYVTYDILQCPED

THP-1 [3] = assay: Inhibition of LPS-stimulated TNF-alpha production in THP-1 cells at a concentration of 3 uM; assay type: functional; conditions: Homo sapiens
[4] = target: Disintegrin and metalloproteinase domain-containing protein 17 (Homo sapiens, UniProt P78536); assay: Inhibition of Tumor necrosis factor alpha converting enzyme
Sequence of Disintegrin and metalloproteinase domain-containing protein 17 (P78536 whole entry, the tested form may be a part): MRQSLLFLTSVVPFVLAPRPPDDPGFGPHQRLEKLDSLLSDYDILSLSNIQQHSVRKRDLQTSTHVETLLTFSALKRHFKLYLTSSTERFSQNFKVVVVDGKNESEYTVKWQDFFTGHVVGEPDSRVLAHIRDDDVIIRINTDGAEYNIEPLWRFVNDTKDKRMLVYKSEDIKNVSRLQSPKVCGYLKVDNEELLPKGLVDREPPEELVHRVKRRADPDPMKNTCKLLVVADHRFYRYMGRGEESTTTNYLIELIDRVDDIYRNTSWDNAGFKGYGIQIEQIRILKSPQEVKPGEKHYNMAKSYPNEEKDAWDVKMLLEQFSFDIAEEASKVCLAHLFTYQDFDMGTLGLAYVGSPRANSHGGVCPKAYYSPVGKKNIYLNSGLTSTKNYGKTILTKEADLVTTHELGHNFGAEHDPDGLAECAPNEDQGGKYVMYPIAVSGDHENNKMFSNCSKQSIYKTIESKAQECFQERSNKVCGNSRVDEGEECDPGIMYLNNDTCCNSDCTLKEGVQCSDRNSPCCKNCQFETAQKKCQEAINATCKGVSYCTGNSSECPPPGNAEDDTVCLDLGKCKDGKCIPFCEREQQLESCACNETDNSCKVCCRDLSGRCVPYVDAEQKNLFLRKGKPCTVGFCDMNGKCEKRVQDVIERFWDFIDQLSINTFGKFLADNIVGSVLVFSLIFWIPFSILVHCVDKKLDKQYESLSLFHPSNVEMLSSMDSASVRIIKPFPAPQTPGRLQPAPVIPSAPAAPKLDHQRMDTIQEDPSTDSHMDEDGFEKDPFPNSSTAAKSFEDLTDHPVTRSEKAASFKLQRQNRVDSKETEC

[5] = target: T2, Matrix metalloproteinase-9; assay: Inhibition of Matrix metalloprotease-9 activity
Collagenase 3 [6] = target: T3, Collagenase 3 (Homo sapiens, UniProt P45452); assay: Inhibition of Matrix metalloprotease-13
Collagenase 3 [7] = target: T3, Collagenase 3; assay: Inhibition of Matrix metalloprotease-13 activity
Interstitial collagenase = target: T4, Interstitial collagenase (Homo sapiens, UniProt P03956); assay: Inhibition of Matrix metalloprotease-1
T4 sequence (P03956 whole entry): T1 sequence (whole entry)

THP-1 [8] = assay: Compound was evaluated for its ability to inhibit […] production using THP-1 cellular assay at a concentration of 1 uM; assay type: functional; conditions: Homo sapiens
Collagenase 3 [9] = target: T3, Collagenase 3; assay: Inhibition of Matrix metalloprotease-13 at 10 uM
THP-1 [10] = assay: Compound was evaluated for its ability to inhibit LPS-stimulated TNF-alpha production in THP-1 cells at a concentration of 1 uM; assay type: functional; conditions: Homo sapiens
[11] = target: T2, Matrix metalloproteinase-9; assay: Inhibition of Matrix metalloprotease-9 at 1 uM
Collagenase 3 [12] = target: T3, Collagenase 3; assay: Inhibition of Matrix metalloprotease-13 at 1 uM

Row | Structure (SMILES) | inhibition [1] [%] | inhibition at 3 µM (THP-1 [3]) [%] | IC50 [4] [nM] | other results
1 | CNCC#CCOc1ccc(S(=O)(=O)N(C)c2c(C)cc(Br)cc2C(=O)NO)cc1 | 26 |  |  | 
2 | Cc1cc(Br)cc(C(=O)NO)c1N(C)S(=O)(=O)c1ccc(OCC#CCNCCCN(C)C)cc1 | 32 |  |  | 
3 | CC#CCOc1ccc(S(=O)(=O)N(C)c2ccccc2C(=O)NO)cc1 | 35 | 32 | 27 | inhibition [2]: 61%
4 | CC#CCOc1ccc(S(=O)(=O)N(C)c2c(C(=O)NO)cc(Br)cc2C2CCN(C)CC2)cc1 |  | 94 | 25 | IC50 [5]: 166 nM; IC50 (Collagenase 3 [6]): 252 nM
5 | CCN(CC)CC#CCOc1ccc(S(=O)(=O)N(C)c2c(C)cc(Br)cc2C(=O)NO)cc1 | 21 |  |  | 
6 | COc1ccc(S(=O)(=O)N(C)c2c(C(=O)NO)cc(Br)cc2C2CCN(C)CC2)cc1 |  | 42 | 26 | IC50 [5]: 2 nM; IC50 (Collagenase 3 [7]): 5 nM; IC50 (Interstitial collagenase): 194 nM
7 | CC#CCOc1ccc(S(=O)(=O)N(C)c2c(C)cc(Br)cc2C(=O)NO)cc1 |  |  |  | inhibition at 1 µM (THP-1 [8]): 59%
8 | CC#CCOc1ccc(S(=O)(=O)N(C)c2c(C(=O)NO)cc(-c3ccccc3)cc2C2CCN(C)CC2)cc1 |  | 95 | 42 | IC50 [5]: 28 nM; IC50 (Collagenase 3 [7]): 47 nM; IC50 (Interstitial collagenase): 1920 nM
9 | CC#CCOc1ccc(S(=O)(=O)Nc2c(C)cccc2C(=O)NO)cc1 | 6 | 7 | 84 | inhibition (Collagenase 3 [9]): 42%
10 | Cc1cc(Br)cc(C(=O)NO)c1N(C)S(=O)(=O)c1ccc(OCC#CCO)cc1 |  |  |  | inhibition at 1 µM (THP-1 [10]): 69%
11 | CCCCOc1ccc(S(=O)(=O)N(C)c2c(C)cc(Br)cc2C(=O)NO)cc1 |  | 0 | 67 | 
12 | Cc1cc(Br)cc(C(=O)NO)c1N(C)S(=O)(=O)c1ccc(OCc2cccnc2)cc1 | 42 | 9 | 28 | inhibition [11]: 28%; inhibition (Collagenase 3 [12]): 48%
13 | CC#CCOc1ccc(S(=O)(=O)N(C)c2c(C)cccc2C(=O)NO)cc1 | 85 | 55 | 28 | IC50 (Collagenase 3 [7]): 416 nM
